Test results as given in ChEMBL document CHEMBL1154459, “Synthesis and evaluation of a series of benzopyran derivatives as PPAR alpha/gamma agonists” (Eur J Med Chem, 2008).
Active and inactive are the calls of the source. The rule behind the calls is not given here.

What was measured:
[1] = target: T1, Peroxisome proliferator-activated receptor alpha (Homo sapiens, UniProt Q07869); assay: Agonist activity at human PPARalpha in U2OS cells by transactivation assay
T1 sequence (Q07869 whole entry): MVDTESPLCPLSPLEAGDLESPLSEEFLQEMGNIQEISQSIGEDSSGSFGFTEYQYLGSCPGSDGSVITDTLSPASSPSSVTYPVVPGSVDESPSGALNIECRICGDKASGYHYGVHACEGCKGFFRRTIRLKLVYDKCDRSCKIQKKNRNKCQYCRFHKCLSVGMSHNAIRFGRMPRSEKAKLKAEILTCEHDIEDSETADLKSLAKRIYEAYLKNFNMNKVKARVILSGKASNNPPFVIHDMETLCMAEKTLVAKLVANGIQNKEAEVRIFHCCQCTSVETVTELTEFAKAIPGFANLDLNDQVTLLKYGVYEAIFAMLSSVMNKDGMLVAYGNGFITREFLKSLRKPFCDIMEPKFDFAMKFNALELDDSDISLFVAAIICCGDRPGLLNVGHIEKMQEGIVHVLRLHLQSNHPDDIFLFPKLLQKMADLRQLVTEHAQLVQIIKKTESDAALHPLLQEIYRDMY

[2] = target: T2, Peroxisome proliferator-activated receptor alpha (Homo sapiens) (UniProt Q07869); assay: Agonist activity at human PPARalpha in U2OS cells by transactivation assay relative to WY-14643; type: functional, cell-based
T2 sequence (whole entry): T1 sequence (Q07869 whole entry)

[3] = target: T3, Peroxisome proliferator-activated receptor gamma (Homo sapiens, UniProt P37231)
T3 sequence (P37231 whole entry): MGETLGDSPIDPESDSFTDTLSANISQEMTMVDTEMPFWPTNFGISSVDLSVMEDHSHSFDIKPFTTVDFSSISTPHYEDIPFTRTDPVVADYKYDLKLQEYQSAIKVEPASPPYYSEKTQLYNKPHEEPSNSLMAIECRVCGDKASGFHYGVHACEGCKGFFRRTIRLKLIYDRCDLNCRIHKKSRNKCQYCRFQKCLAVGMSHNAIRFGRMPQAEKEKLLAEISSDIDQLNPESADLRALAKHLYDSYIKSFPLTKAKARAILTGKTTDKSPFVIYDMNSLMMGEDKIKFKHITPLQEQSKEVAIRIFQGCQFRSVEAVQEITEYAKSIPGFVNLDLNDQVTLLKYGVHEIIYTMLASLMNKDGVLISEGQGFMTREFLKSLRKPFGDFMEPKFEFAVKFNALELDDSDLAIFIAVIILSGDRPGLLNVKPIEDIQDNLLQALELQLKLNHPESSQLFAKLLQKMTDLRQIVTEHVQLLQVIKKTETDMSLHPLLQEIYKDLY
Description: Agonist activity at human PPARgamma in U2OS cells by transactivation assay

SMILES | EC50 [1] | %max [2] | EC50 [3] | EC50 ([1]; u2os)
COC(=O)C1Cc2ccc(OCCc3nc(-c4ccc(C(C)(C)C)cc4)oc3C)cc2OC1=O (stereo unspecified) | 0.1 µM | 26% | 0.25 µM | –
Cc1cccc(Nc2cc(Cl)nc(SCC(=O)O)n2)c1C | – | 100% | – | –
COC(=O)C1Cc2ccc(OCCc3nc(-c4cccc(OC)c4)oc3C)cc2OC1=O (stereo unspecified) | 1.2 µM | 23% | 0.1 µM | –
COC(=O)C1Cc2ccc(OCCc3nc(-c4cccc(F)c4)oc3C)cc2OC1=O (stereo unspecified) | 0.72 µM | 30% | 0.17 µM | –
COC(=O)C1Cc2ccc(OCCc3nc(-c4ccccc4)oc3C)cc2OC1=O (stereo unspecified) | 0.14 µM | 42% | 0.13 µM | –
COC(=O)c1cc2ccc(OCCc3nc(-c4ccc(OC)cc4)oc3C)cc2oc1=O | 5.25 µM | 163% | 0.001 µM | –
COC(=O)C1Cc2ccc(OCCc3nc(-c4cccc(C)c4)oc3C)cc2OC1=O (stereo unspecified) | 1.55 µM | 83% | 0.001 µM | –
COC(=O)C1Cc2ccc(OCCc3nc(-c4ccc(F)cc4)oc3C)cc2OC1=O (stereo unspecified) | 0.1 µM | 98% | 0.001 µM | –
COC(=O)c1cc2ccc(OCCc3nc(-c4ccc(-c5ccccc5)cc4)oc3C)cc2oc1=O | 1.23 µM | 116% | 1.26 µM | –
COC(=O)C1Cc2ccc(OCCc3nc(-c4ccc(-c5ccccc5)cc4)oc3C)cc2OC1=O (stereo unspecified) | 0.91 µM | 68% | 1.12 µM | –
COC(=O)C1Cc2ccc(OCCc3nc(-c4cccc(C(F)(F)F)c4)oc3C)cc2OC1=O (stereo unspecified) | 0.17 µM | 23% | 0.16 µM | –
COC(=O)C1Cc2ccc(OCCc3nc(-c4ccc(OC)cc4)oc3C)cc2OC1=O (stereo unspecified) | 1.74 µM | 96% | 0.001 µM | –
COC(=O)C1Cc2ccc(OCCc3nc(-c4ccc(C)cc4)oc3C)cc2OC1=O (stereo unspecified) | 0.91 µM | 94% | 0.001 µM | –

Results, then the compound that gave them:

EC50 [1] | %max [2] | EC50 [3] | EC50 ([1]; u2os) | SMILES
– | inactive | 0.001 µM | Not Active | COC(=O)c1cc2ccc(OCCc3nc(-c4cccc(C)c4)oc3C)cc2oc1=O
1.62 µM | 100% | 0.35 µM | – | COC(=O)c1cc2ccc(OCCc3nc(-c4cccc(OC)c4)oc3C)cc2oc1=O
2.29 µM | 90% | 1.74 µM | – | COC(=O)c1cc2ccc(OCCc3nc(-c4ccc(C(C)(C)C)cc4)oc3C)cc2oc1=O
1.29 µM | 38% | 0.96 µM | – | COC(=O)c1cc2ccc(OCCc3nc(-c4cccc(F)c4)oc3C)cc2oc1=O
– | inactive | 3.55 µM | Not Active | COC(=O)c1cc2ccc(OCCc3nc(-c4cccc([N+](=O)[O-])c4)oc3C)cc2oc1=O
0.001 µM | 65% | 0.001 µM | – | COC(=O)c1cc2ccc(OCCc3nc(-c4ccc(C)cc4)oc3C)cc2oc1=O
0.07 µM | 44% | 1.62 µM | – | COC(=O)c1cc2ccc(OCCc3nc(-c4ccc(F)cc4)oc3C)cc2oc1=O
1.2 µM | 21% | 0.42 µM | – | COC(=O)c1cc2ccc(OCCc3nc(-c4cccc(C(F)(F)F)c4)oc3C)cc2oc1=O
